Twelve molecules from ChEMBL document CHEMBL4616670, “Phosphine Oxides from a Medicinal Chemist's Perspective: Physicochemical and in Vitro Parameters Relevant for Drug Discovery” (J Med Chem, 2020) can be followed below.

A word on the logD: it is the decadic logarithm of the distribution of all forms, ionised or not, between an organic phase and buffer at a given pH. Higher therefore signals higher lipophilicity. By Papp A→B is commonly meant the apparent permeability from the apical to the basolateral side of a cell layer. Read a low Papp A→B as poor permeation. Usually efflux ratio stands for a quotient of directional permeabilities that is used to spot active efflux. The half-life is how long it takes for the measured level to halve. As a reminder, the fraction unbound is free concentration divided by total concentration. A higher fraction unbound goes with much free substance. In general, pKa refers to the pH at which an ionisable group is half protonated. Low values mean a stronger acid or weaker base, high ones a weaker acid or stronger base. In general, pKb refers to the Kb on a negative log10 scale, so that one unit is a factor of ten. The low end stands for a high Kb, the high end for a low Kb.

Data set [1] is described as follows: Chemical stability of the compound in MeOH/HCl solution at pH <1 assessed as compound decomposition measured after 1 day by UV-RP-HPLC analysis. The format is physicochemical. The settings on record: read-out: Drug degradation.
The nature of data set [2]: physchem. To be noted: octanol/water, pH 11.
Description: Octanol/water partition coefficient, log D of the compound at pH 11
Data set [3] is described as follows: in vitro. To be noted: human, liver microsomes. (Microsomes from liver hold many membrane-bound enzymes, among them those of drug oxidation.)
Description: Stability in human liver microsomes at 1 uM incubated prior to NADPH addition by LC-MS/MS analysis relative to hepatic blood flow
Data set [4] in a line: physchem. The settings on record: pH 6.8 buffer.
Data set [5] is described as follows: in vitro. The settings on record: human, Caco-2.
Description: Permeability across apical to basolateral side in human Caco2 cells measured up to 2 hrs by LC-MS/MS analysis or scintillation counting method
Data set [6] can be described thus: physchem. The settings on record: octanol/water, pH 2.
Description: Octanol/water partition coefficient, log D of the compound at pH 2
A short description of data set [7]: in vitro. The settings on record: human, Caco-2. This is another data set of the same source.
Description: Efflux ratio of permeability in human Caco2 cells measured up to 2 hrs by LC-MS/MS analysis or scintillation counting method
The conditions of data set [8]: 24 h.
Description: Chemical stability of the compound in MeOH/NH3 solution at pH >10 assessed as compound decomposition measured after 1 day by UV-RP-HPLC analysis
The nature of data set [9]: in vitro. To be noted: human, liver microsomes. This is another data set of the same source.
Description: Half life in human liver microsomes at 1 uM incubated prior to NADPH addition by LC-MS/MS analysis
A short description of data set [10]: physchem. The settings on record: pH 6.8 buffer. This is another data set of the same source.
Data set [11] is described as follows: in vitro. To be noted: human, plasma.
Description: Protein binding in human plasma
Data set [12] in a line: physchem. To be noted: MeOH/HCl solution.
Description: Chemical stability of the compound in MeOH/HCl solution at pH <1 assessed as compound decomposition measured after 7 days by UV-RP-HPLC analysis
The nature of data set [13]: Equilibrium thermodynamic aqueous solubility of the compound in pH 2 buffer incubated for 24 hrs by UV-spectroscopy based shake flask method. In kind it is physicochemical. To be noted: read-out: Therm_solubility.
For data set [14] the following is noted: 168 h.
Description: Chemical stability of the compound in MeOH/NH3 solution at pH >10 assessed as compound decomposition measured after 7 days by UV-RP-HPLC analysis
Data set [15] can be described thus: Acid dissociation constant, pKa of the compound by UV absorption spectra analysis or potentiometric titration technique. In kind it is physicochemical.
Data set [16] can be described thus: Equilibrium thermodynamic aqueous solubility of the compound in pH 5.9 buffer incubated for 24 hrs by UV-spectroscopy based shake flask method. The settings on record: read-out: Therm_solubility. The format is physicochemical.
Data set [17] is described as follows: Equilibrium thermodynamic aqueous solubility of the compound in pH 2.1 buffer incubated for 24 hrs by UV-spectroscopy based shake flask method. To be noted: read-out: Therm_solubility. The format is physicochemical.
Data set [18] can be described thus: Acid dissociation constant, pKa1 of the compound by UV absorption spectra analysis or potentiometric titration technique. In kind it is physicochemical.
Data set [19] is described as follows: Equilibrium thermodynamic aqueous solubility of the compound in pH 2.3 buffer incubated for 24 hrs by UV-spectroscopy based shake flask method. The format is physicochemical. The settings on record: read-out: Therm_solubility.
The nature of data set [20]: Acid dissociation constant, pKa2 of the compound by UV absorption spectra analysis or potentiometric titration technique. In kind it is physicochemical.
The nature of data set [21]: Basic dissociation constant, pKb of the compound by UV absorption spectra analysis or potentiometric titration technique. The format is physicochemical.
The nature of data set [22]: Chemical stability of the compound in MeOH/H2O solution at pH >10 assessed as compound decomposition measured after 1 day by UV-RP-HPLC analysis. In kind it is physicochemical. The settings on record: read-out: Drug degradation.

SMILES strings stand for the structures. Values after ≈ are worked out from the molar mass of the structure shown.

Consider `O=P1(c2ccc(C(F)(F)F)cc2)NCCCO1` (stereo not given), for which the degraded at 24 h in [1] is greater than 90%. Further, the pH-dependent lipophilicity (logD) in “physchem [2]” worked out at 1.3; in “physchem [6]”, 2. Moreover, in “in vitro [3]”, the hepatic extraction ratio at 1 µM is less than 0.23. This molecule returned a solubility thermodynamic at 24 h in the data set “physchem [4]” greater than 60 µg/mL. In “in vitro [5]”, this molecule showed a Papp A→B at 2 h of 57 ×10⁻⁶ cm/s. The efflux ratio at 2 h in the data set “in vitro [7]” was found to be 0.7. The Drug degradation in data set [8] was greater than 90%. This molecule also returned a half-life at 1 µM in the data set “in vitro [9]” greater than 130 min.
`Cc1ccc(NC(=O)c2ccc(P(C)(C)=O)cc2)cc1Nc1nccc(-c2cccnc2)n1`: the logD in “physchem [2]” is 1.5; in the data set “physchem [6]”, 0.4. In “in vitro [3]”, the hepatic extraction ratio at 1 µM was less than 0.23. Further, the values for the solubility thermodynamic at 24 h in “physchem [4]” and in the data set “physchem [10]” were 77 µg/mL (≈ 0.168 mM) and 20 µg/mL (≈ 0.0437 mM), respectively. Besides, in the data set “in vitro [5]”, the Papp A→B at 2 h amounted to 0.1 ×10⁻⁶ cm/s. In the data set “in vitro [7]”, the efflux ratio at 2 h came to 16. Moreover, the free fraction (fraction unbound) in the data set “in vitro [11]” is 0.163. The molecule also registered a half-life at 1 µM in “in vitro [9]” greater than 130 min.
For `CC1(C)COP(=O)(c2ccc(C(F)(F)F)cc2)OC1`, the logD in the data set “physchem [2]” came out at 2.6; in the data set “physchem [6]”, 3.1. Besides, the hepatic extraction ratio at 1 µM in the data set “in vitro [3]” was less than 0.23. For the same molecule, the values for the solubility thermodynamic at 24 h in “physchem [4]” and in the data set “physchem [10]” were greater than 67 µg/mL and 2800 µg/mL (≈ 9.52 mM), respectively. In addition, in the data set “in vitro [5]”, the apical-to-basolateral permeability (Papp A→B) at 2 h was 73 ×10⁻⁶ cm/s. In “in vitro [7]”, the efflux ratio at 2 h was determined as 0.6. This molecule registered a degraded at 168 h in the data set “physchem [12]” of less than 10%. Besides, in data set [8], the Drug degradation is greater than 90%. This molecule gave a half-life at 1 µM in “in vitro [9]” greater than 130 min.
On to `COP(=O)(O)c1ccc(C(F)(F)F)cc1`, for which the hepatic extraction ratio at 1 µM in the data set “in vitro [3]” was less than 0.23. Moreover, the solubility thermodynamic at 24 h was greater than 60 µg/mL in the data set “physchem [4]” and 27.3 mg/mL (≈ 114 mM) in data set [13]. The same molecule had a logD in the data set “physchem [6]” of 1.3. In “physchem [12]”, this molecule displayed a degraded at 168 h of less than 10%. Besides, in the data set “in vitro [9]”, the half-life at 1 µM is greater than 130 min. Besides, the Drug degradation in [14] is less than 10%.
Molecule `CP(=O)(O)c1ccc(C(F)(F)F)cc1` showed a pKa in [15] of 2. Also, the logD in “physchem [2]” was -1.3; in “physchem [6]”, 1.3. For the same molecule, in the data set “in vitro [3]”, the hepatic extraction ratio at 1 µM was less than 0.23. The solubility thermodynamic at 24 h is greater than 49 µg/mL in “physchem [4]” and greater than 8900 µg/mL in data set [16]. For the same molecule, in “in vitro [5]”, the Papp A→B at 2 h is less than 5 ×10⁻⁶ cm/s. For the same molecule, the degraded at 168 h in the data set “physchem [12]” was less than 10%. The molecule also came in with a half-life at 1 µM in the data set “in vitro [9]” greater than 130 min. In data set [14], this molecule returned a Drug degradation of less than 10%.
Take `O=P(O)(OCCO)c1ccc(C(F)(F)F)cc1`: the solubility thermodynamic at 24 h in “physchem [4]” was greater than 63 µg/mL; in data set [17] it was greater than 28.5 mg/mL. Moreover, the degraded at 168 h in “physchem [12]” is less than 10%. Moreover, the Drug degradation in [14] was less than 10%.
As to `CCOP(=O)(O)c1ccc(C(F)(F)F)cc1`, the values for the log distribution coefficient (logD) in “physchem [2]” and in “physchem [6]” were -0.8 and 1.9, respectively. In addition, the hepatic extraction ratio at 1 µM in “in vitro [3]” was less than 0.23. Moreover, the results for the solubility thermodynamic at 24 h (in the data set “physchem [4]”; in [17]) were greater than 64 µg/mL and 280 mg/mL (≈ 1100 mM), respectively. The molecule also had an apical-to-basolateral permeability (Papp A→B) at 2 h in the data set “in vitro [5]” of 10 ×10⁻⁶ cm/s. Moreover, the efflux ratio at 2 h in the data set “in vitro [7]” is less than 0.1. In the data set “physchem [12]”, this molecule came in with a degraded at 168 h of less than 10%. Further, the half-life at 1 µM in “in vitro [9]” was greater than 130 min. The molecule further showed a Drug degradation in [14] of less than 10%.
In the case of `O=P(O)(O)c1ccc(C(F)(F)F)cc1`, the pKa was less than 2 in data set [18] and 6.8 in [20]. In addition, the pH-dependent lipophilicity (logD) in “physchem [2]” is less than -1.6; in the data set “physchem [6]”, 0.6. Further, the values for the solubility thermodynamic at 24 h (in the data set “physchem [4]”; in data set [19]) were greater than 54 µg/mL and 17.8 mg/mL (≈ 78.7 mM), respectively. This molecule also yielded a degraded at 168 h in “physchem [12]” of less than 10%. The same molecule showed a Drug degradation in [14] of less than 10%.
On to `CCOP(=O)(OCC)c1ccc(C(=O)Nc2ccc(C)c(Nc3nccc(-c4cccnc4)n3)c2)cc1`, for which the logD in the data set “physchem [2]” turned out to be 2.8; in “physchem [6]”, 1.5. Besides, in the data set “in vitro [3]”, the hepatic extraction ratio at 1 µM was found to be 0.7. The solubility thermodynamic at 24 h in “physchem [4]” is 1 µg/mL (≈ 0.00193 mM); in the data set “physchem [10]”, less than 1 µg/mL. In addition, in the data set “in vitro [5]”, the Papp A→B at 2 h came to 18 ×10⁻⁶ cm/s. Further, the efflux ratio at 2 h in “in vitro [7]” is 1.6. Besides, the fraction unbound in “in vitro [11]” is 0.019. This molecule returned a half-life at 1 µM in the data set “in vitro [9]” of 17 min.
As to `O=P1(c2ccc(C(F)(F)F)cc2)OCCNCCO1`, the logD in “physchem [2]” turned out to be 1.5; in the data set “physchem [6]”, 0.5. The hepatic extraction ratio at 1 µM in the data set “in vitro [3]” was less than 0.23. In addition, the solubility thermodynamic at 24 h in the data set “physchem [4]” was 66 µg/mL (≈ 0.224 mM); in the data set “physchem [10]”, greater than 10000 µg/mL. The molecule further returned a negative logarithm of the Kb (pKb) in data set [21] of 6. Also, the apical-to-basolateral permeability (Papp A→B) at 2 h in “in vitro [5]” came to 63 ×10⁻⁶ cm/s. The efflux ratio at 2 h in “in vitro [7]” is 0.7. For the same molecule, in “physchem [12]”, the degraded at 168 h was less than 10%. The same molecule gave a half-life at 1 µM in “in vitro [9]” greater than 130 min. Further, in data set [22], the degraded at 24 h is 20%.
As to `O=P1(c2ccc(C(F)(F)F)cc2)OCCCO1`, the logD in “physchem [2]” was 1.5; in “physchem [6]”, 2.1. Besides, the hepatic extraction ratio at 1 µM in the data set “in vitro [3]” was less than 0.23. Besides, the solubility thermodynamic at 24 h was greater than 66 µg/mL in “physchem [4]” and 8800 µg/mL (≈ 33.1 mM) in “physchem [10]”. Further, in “in vitro [5]”, the Papp A→B at 2 h is 95 ×10⁻⁶ cm/s. Moreover, the efflux ratio at 2 h in the data set “in vitro [7]” was 0.4. The degraded at 168 h in the data set “physchem [12]” is less than 10%. In addition, the Drug degradation in data set [8] is recorded as greater than 90%; in data set [14], 70%. In “in vitro [9]”, this molecule came in with a half-life at 1 µM greater than 130 min.
In turn, `O=C(O)c1ccc(C(F)(F)F)cc1` showed a pKa in [15] of 3.5. For the same molecule, the hepatic extraction ratio at 1 µM in “in vitro [3]” was less than 0.23. Further, the solubility thermodynamic at 24 h in “physchem [4]” is greater than 48 µg/mL; in the data set “physchem [10]” it was greater than 10000 µg/mL. Besides, the apical-to-basolateral permeability (Papp A→B) at 2 h in “in vitro [5]” was found to be 15 ×10⁻⁶ cm/s. In addition, in the data set “in vitro [7]”, the efflux ratio at 2 h came out at 1.3. Moreover, the half-life at 1 µM in “in vitro [9]” was greater than 130 min.
